≈ marks a conversion by molar mass, not a printed value. Entries after “also recorded” stand apart in the source; their conditions may differ. Where two headings read alike, the source gives them in different places.
Experiments:
[1] = system: Dd2 (multidrug-resistant) strain of Plasmodium falciparum; assay: Antiplasmodial screen, parasite lactate dehydrogenase (pLDH) assay, Dd2 strain; type: cell-based; details: for Activity against Dd2 IC95 / Activity against Dd2 IC50: P. falciparum Dd2, pLDH assay; for IC50: Plasmodium falciparum
Description: (§1) The 3D7 (MRA-102), and Dd2 (MRA-615) strains were kindly donated by BEI-Resources (MR4, Manassas, VA, USA), and maintained in continuous culture, with back up stored in liquid nitrogen.
(§2) The laboratory strains of P. falciparum were grown and maintained in culture using the method of Trager and Jensen with some modifications. All the chemicals except Albumax II (Gibco; Invitrogen, USA), were ordered from Sigma-Aldrich Inc (Germany). The cultures were monitored and parasitemia assessed using both fluorescence (acridine orange) and normal light (Giemsa stain) microscopes.
(§3) The antiplasmodial screen was carried out in 96-well microtitration plates as described by Desjardins et al. with some modifications. The different drug stock solutions were prepared by predisolving the powder in DMSO (200 µL for a final volume of 10 mL stock solution) and subsequently with the culture medium. The parasitaemia was measured using the parasite lactate dehydrogenase (pLDH) assay as previously described.
(§4) Each product was tested in triplicate, in two to three separate experiments, giving a total of six to nine repeats per product and per concentration tested. The IC50 and CC50 values obtained from the replicates were pooled and expressed as geometric mean IC50 and standard deviation. The different means were compared among themselves by independent samples t-test.

[2] = system: 3D7 (chloroquine-susceptible) strain of Plasmodium falciparum; assay: Antiplasmodial screen, parasite lactate dehydrogenase (pLDH) assay, 3D7 strain; type: cell-based; details: for Activity against 3D7 IC95 / Activity against 3D7 IC50: P. falciparum 3D7, pLDH assay; for IC50: Plasmodium falciparum
Description: as §1, §2, §3, §4

Dd2 [3] = assay: Stage-specific activity: variation of IC50 with exposure time, sorbitol-synchronized ring stage culture; type: cell-based; details: Plasmodium falciparum
Description: As a preliminary study towards the understanding of the mechanisms of action of the active drugs, the stage-specific activity of the products was studied by investigation of the variation in IC50 values with exposure time.
Figure 2 Variation of IC50 against Dd2 with exposure time. […] The IC50 values presented were obtained from two distinct experiments run in duplicate each.

[4] = Cytotoxicity on LLC-MK2 cells; type: cell-based, monkey; details: monkey, LLC-MK2 cells, read-out: Cytotoxicity against LLC-MK2 CC50
Description: (§5) The cytotoxicity of the extracts and pure compounds were estimated on LLC-MK2 monkey kidney epithelial cells as previously described with some modifications. The cell line was ordered from the American Type Culture Collection (ATCC, Manassas, Virginia, USA) and maintained in continuous culture.
as §4
(§6) The selectivity index defined as SI = CC50/IC50 was equally considered for compounds with mild cytotoxicity with SI<10 for toxic products. Based on these cut-off values, all products isolated from D. edulis in the present study were non-toxic against the LLC-MK2 cell-line.

[5] = system: LLC-MK2 monkey kidney epithelial cells; assay: Cytotoxicity on LLC-MK2 cells; type: cell-based; details: SI = CC50/IC50, LLC-MK2 vs Dd2
Description: as §5, §4, §6

Dd2 [6] = assay: Drug-interaction study, fixed-ratio combinations, FIC / Combination Index / isobologram; type: cell-based, Plasmodium falciparum; details: for Increase of activity on combining DES4 and quinine: DES4 plus quinine
Description: From the results obtained with individual drugs, a stock solution of 32 x IC50 of each drug was prepared and used in preparing a series of six combinations ([1]–[6]) containing 5:0, 4:1, 3:2, 2:3, 1:4 and 0:5 proportions volume:volume of Drug A versus Drug B respectively. Each of these formulations were then tested and their different inhibitory concentrations determined separately.
IC50 values obtained for the different drug mixtures were used to calculate the Fractional Inhibitory Concentration (FIC) for each drug as described previously. FIC-A for example measures how much the presence of Drug B affects the activity of Drug A in the mixture, and vis versa.
FIC−A=IC50−A(comb.)/IC50−A(alone)
FIC−B=IC50−B(comb.)/IC50−B(alone)
A graph was constructed with the axes representing the mean FIC of linear scales, with mean FIC-A on the x axis and FIC-B on the y axis. When the combination is additive, the isobole which is the line joining the points that represent all the (x, y) points is straight. Synergistic combinations give concave isoboles, and antagonistic combinations give convex isoboles.
CI values were therefore calculated separately for both the drugs present in combinations 2 through 5; combinations 1 and 6 containing Drug A and Drug B alone. In addition to analyzing the result obtained with each drug combination formula, an overall mean CI value for the four combinations was determined to conclude on the interaction patterns of the two drugs being tested. Synergy or antagonism was defined as a mean CI< or >1, respectively, and lack of interaction (also termed additivity) defined as CI= 1 [21].
IC50 values were used to calculate the Fractional Inhibitory Concentration (FIC) for each drug as described previously. FIC-A measures how much the presence of a Drug B affects the activity of Drug-A in the mixture. […] Statistical significance was defined as p<0.05. A graph was constructed with the axes representing the mean FIC of linear scales, with mean FIC-A on the x-axis and FIC-B on the y-axis. When the combination is additive, the isobole which is the line joining the points that represent all the (x, y) points is straight. Synergistic combinations give concave isoboles, and antagonistic combinations give convex isoboles.
The overall mean CI value for the four combinations formulae was finally determined and synergy or antagonism between the two drugs in combination, defined as a mean CI< or >1, respectively, lack of interaction or additivity defined as CI = 1 [21].

[7] = DD2, P. falciparum Dd2, pLDH assay, read-out: Activity against Dd2 IC50
[8] = 3D7, P. falciparum 3D7, pLDH assay, read-out: Activity against 3D7 IC50
[9] = 3D7, read-out: Activity against 3D7 IC50, P. falciparum 3D7, pLDH assay
[10] = Dd2, synchronized ring stage, 24 hours exposure, read-out: IC50 against Dd2, exposure time 24 hours
[11] = Dd2, synchronized ring stage, 48 hours exposure, read-out: IC50 against Dd2, exposure time 48 hours
[12] = DES4 combined with quinine, Dd2

Compound	Activity against Dd2 IC95 [1] [µg/mL]	IC50 [1, 7] [µg/mL]	Activity against 3D7 IC95 [2] [µg/mL]	IC50 [2, 8] [µg/mL]	Activity against Dd2 IC50 [1]	Activity against 3D7 IC50 [2] [µg/mL]	CC50 [4] [µg/mL]	Selectivity index/Dd2 [5]	further results
CO[C@H]1O[C@@H]2O[C@@]3(C)CC[C@H]4[C@H](C)CC[C@@H]([C@H]1C)[C@@]24OO3 [ART, artemether, reference compound]	0.12 ± 0.09	0.03 ± 0.01 (≈ 0.101 µM)	0.08 ± 0.02	0.02 ± 0.01 (≈ 0.067 µM)	–	–	–	–	–
C[C@@H]1O[C@@H](Oc2c(-c3ccc(O)c(O)c3)oc3cc(O)cc(O)c3c2=O)[C@H](O)[C@H](O)[C@H]1O [DES1, Quercitrin]	23.82 ± 6.35	–	18.53 ± 3.13	–	below 10 µg/mL	5.96 ± 0.51	> 100	> 44	IC50 (Dd2 [3]; DD2, 24 h, read-out: IC50 against Dd2, exposure time 24 hours): 1.41 µg/mL (≈ 3.14 µM); IC50 (Dd2 [3]; DD2, 48 h, read-out: IC50 against Dd2, exposure time 48 hours): 2.19 µg/mL (≈ 4.88 µM); IC50 [2, 9]: < 10 µg/mL
C[C@@H]1O[C@@H](Oc2c(-c3ccc(O)cc3)oc3cc(O)cc(O)c3c2=O)[C@H](O)[C@H](O)[C@H]1O [DES2, Afzelin]	35.03 ± 3.52	–	13.64 ± 0.48	–	inactive	–	> 100	> 5	IC50 ([1]; DD2, read-out: Activity against Dd2 IC50, P. falciparum Dd2, pLDH assay): 19.3 ± 1.56 µg/mL (≈ 44.7 µM); IC50 [2, 9]: 4.59 ± 0.21 µg/mL (≈ 10.6 µM)
O=c1c(O)c(-c2ccc(O)c(O)c2)oc2cc(O)cc(O)c12 [DES3, Quercetin]	15.96 ± 4.79	< 10	15.19 ± 3.88	< 10	5.91 ± 0.97 µg/mL	6.07 ± 0.34	> 100	> 17	–
COC(=O)c1cc(O)c(O)c(O)c1 [DES4, methyl 3,4,5-trihydroxybenzoate]	5.89 ± 0.95	–	2.58 ± 2.04	0.37 ± 0.07 (≈ 2.01 µM)	–	–	> 100	> 182	IC50 (Dd2 [3]; [10]): 6.32 µg/mL (≈ 34.3 µM); IC50 (Dd2 [3]; [11]): 0.56 µg/mL (≈ 3.04 µM); Combination Index, overall value (Dd2 [6]; DES4 combined with artemether): 1.10; Interaction pattern with artemether (Dd2 [6]; DES4 combined with artemether): additivity; also recorded: only additive effects; Combination Index, Combination 2 (Dd2 [6]; DES4 combined with quinine, Combination 2 (4:1), Dd2): 1.05; Combination Index, mean value (Dd2 [6]; [12]): 0.65; Interaction pattern with quinine (Dd2 [6]; [12]): synergy; also recorded: synergistic interactions; Increase of activity on combining DES4 and quinine (Dd2 [6]): 3 fold
CC[C@H](CCC(C)C1CCC2C3CC=C4C[C@@H](O[C@@H]5O[C@H](CO)[C@@H](O)[C@H](O)[C@H]5O)CC[C@]4(C)C3CC[C@]12C)C(C)C (stereo partly drawn) [DES5, sitosterol 3-O-β-D-glucopyranoside sterol]	21.35 ± 0.44	< 10	4.38 ± 0.87	–	5.34 ± 0.98 µg/mL	1.90 ± 0.22	–	> 18	Activity against 3D7 IC50 ([2]; listed as Sitosterol 3-O-β-D-glucopyranoside): below 10 µg/mL; CC50 ([4]; LLC-MK2 monkey kidney epithelial cells): > 100 µg/mL
C=C[C@H]1C[N@@]2CC[C@H]1C[C@H]2[C@H](O)c1ccnc2ccc(OC)cc12 [QN, Quinine sulphate, reference compound]	0.38 ± 0.08	0.12 ± 0.01	0.48 ± 0.10	0.13 ± 0.01	–	–	–	–	IC50 (Dd2 [3]; [10]): 0.21 µg/mL; IC50 (Dd2 [3]; [11]): 0.18 µg/mL; Increase of activity on combining DES4 and quinine (Dd2 [6]): 6 fold
